Data: patent US6472401B2, “Methods for the treatment of vascular disorders” (Schering Corporation, priority 1999, dated 2002)
Like-named read-outs stand apart in the source and are kept apart here.

What was measured:
[1] = for recurrence of symptoms of depression: administered indefinitely
[2] = Administration of antihistamine to patients suffering from clinical depression (Example 2); conditions: for recurrence of symptoms of depression: patients known to have suffered from depression, not currently experiencing symptoms, administered indefinitely; for reduction of symptoms of depression: patients suffering from depression; for recurrence or worsening of symptoms of depression: responders continue treatment at their respective dosage level
Description: Patients suffering from clinical depression are administered a non-sedating antihistamine (loratadine) or a low-sedating antihistamine (cetirizine) to relieve the symptoms of depression. Six treatment groups are contemplated.

[3] = patients known to have suffered from depression and subject to allergic rhinitis, no current symptoms of either
[4] = patients known to have suffered from depression and suffering from allergic rhinitis, no current depression symptoms
[5] = patients suffering from depression and allergic rhinitis
[6] = patients suffering from depression, subject to allergic rhinitis but not currently suffering from it
[7] = responders subject to allergic rhinitis but without current rhinitis symptoms continue treatment at their respective dosage level
[8] = responders suffering from allergic rhinitis continue treatment at their respective dosage level

Row | Compound | recurrence of symptoms of depression [1, 3] | recurrence of symptoms of depression [1, 4] | reduction of symptoms of depression [1, 5] | reduction of symptoms of depression [1, 6] | recurrence or worsening of symptoms of depression [1, 7] | recurrence or worsening of symptoms of depression [1, 8] | recurrence of symptoms of depression [2] | reduction of symptoms of depression [2] | recurrence or worsening of symptoms of depression [2]
1 | O=C(O)COCCN1CCN(C(c2ccccc2)c2ccc(Cl)cc2)CC1 (stereo not drawn) [cetirizine] | a significant number of patients do not experience recurrence of symptoms of depression | a significant number of patients do not experience recurrence of symptoms of depression | A significant number of patients experience a reduction of their symptoms of depression | A significant number of patients experience a reduction of their symptoms of depression | a significant number of patients do not experience recurrence or worsening of symptoms of depression | a significant number of patients do not experience recurrence or worsening of symptoms of depression | a significant number of patients do not experience recurrence of symptoms of depression | A significant number of patients experience a reduction of their symptoms of depression | a significant number of patients do not experience recurrence or worsening of symptoms of depression
2 | CCOC(=O)N1CCC(=C2c3ccc(Cl)cc3CCc3cccnc32)CC1 [loratadine] | a significant number of patients do not experience recurrence of symptoms of depression | a significant number of patients do not experience recurrence of symptoms of depression | A significant number of patients experience a reduction of their symptoms of depression | A significant number of patients experience a reduction of their symptoms of depression | a significant number of patients do not experience recurrence or worsening of symptoms of depression | a significant number of patients do not experience recurrence or worsening of symptoms of depression | a significant number of patients do not experience recurrence of symptoms of depression | A significant number of patients experience a reduction of their symptoms of depression | a significant number of patients do not experience recurrence or worsening of symptoms of depression
